These results are taken from patent US6867009B2 (priority 1999, dated 2005).

“And” between values parts separate entries of the source, which are not always exact repeats. Equal entries are not always repeated. Where two headings read alike, the source gives them in different places.

For experiment [1], the target named is T1, rat VR1 (Rattus norvegicus, UniProt O35433).
T1 construct: expressed in transfected cells
The experiment can be described thus: cell-based.

For experiment [2], the target named is T2, native rat vanilloid receptors (Rattus norvegicus, UniProt O35433).
T2 construct: rat DRG membranes expressing native vanilloid receptors; from tissue; host or cells: dorsal root ganglia of female Sprague-Dawley rats, partially purified membrane fraction
T2 sequence (O35433 whole entry): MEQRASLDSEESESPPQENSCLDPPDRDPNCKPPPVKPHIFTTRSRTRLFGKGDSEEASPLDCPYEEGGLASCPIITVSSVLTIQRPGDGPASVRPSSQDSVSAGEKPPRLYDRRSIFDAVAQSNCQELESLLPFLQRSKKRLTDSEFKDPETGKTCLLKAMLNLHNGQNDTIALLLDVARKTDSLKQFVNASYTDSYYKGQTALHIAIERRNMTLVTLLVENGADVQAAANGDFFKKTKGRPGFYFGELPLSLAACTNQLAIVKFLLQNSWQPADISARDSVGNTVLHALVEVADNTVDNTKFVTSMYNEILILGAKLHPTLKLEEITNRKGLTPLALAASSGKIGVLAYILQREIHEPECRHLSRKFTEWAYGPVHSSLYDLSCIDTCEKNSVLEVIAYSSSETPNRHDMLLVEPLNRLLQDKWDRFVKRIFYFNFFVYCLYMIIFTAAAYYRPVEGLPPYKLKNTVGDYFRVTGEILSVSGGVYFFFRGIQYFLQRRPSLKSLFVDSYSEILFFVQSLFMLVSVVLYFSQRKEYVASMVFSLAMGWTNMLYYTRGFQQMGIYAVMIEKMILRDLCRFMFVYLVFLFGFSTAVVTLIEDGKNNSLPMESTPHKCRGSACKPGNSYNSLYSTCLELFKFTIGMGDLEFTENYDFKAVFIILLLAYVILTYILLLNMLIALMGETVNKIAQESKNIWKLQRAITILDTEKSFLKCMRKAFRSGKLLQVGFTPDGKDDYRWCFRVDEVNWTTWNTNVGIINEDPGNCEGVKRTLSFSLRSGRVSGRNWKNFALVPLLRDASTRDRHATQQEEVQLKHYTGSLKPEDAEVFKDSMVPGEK
The experiment can be described thus: biochemical. Type of experiment: binding.

Experiment [3] deals with rat dorsal root ganglion neurons. The settings on record: cited from earlier work.
Experiment [4] addresses T1, rat VR1. Briefly: biochemical. The class given is binding.
In experiment [5] the target is T1, rat VR1. The experiment can be described thus: biochemical. The class given is binding. The source holds these as a separate data set.
For another experiment, the target named is T3, vanilloid receptor (VR) (Rattus norvegicus, UniProt O35433).
T3 construct: With regard to DRG neurons expressing native VRs this is clearly not the case; host or cells: intact rat dorsal root ganglion neurons
T3 sequence (O35433 whole entry): as above
The note with it: cited from earlier work.

The target of experiment [6] is T1, rat VR1. Briefly: cell-based. The source holds these as a separate data set.
The next experiment has as its target T4, VR1 (Rattus norvegicus, UniProt O35433).
T4 construct: host or cells: Xenopus oocytes (A8); VR1-transfected HEK293 cells (A9)
The note with it: cited from earlier work.

In experiment [7] the target is T5, rat vanilloid-receptor-like protein 1 (VRL-1) (Rattus norvegicus, UniProt Q9WUD2).
T5 sequence (Q9WUD2 1-761): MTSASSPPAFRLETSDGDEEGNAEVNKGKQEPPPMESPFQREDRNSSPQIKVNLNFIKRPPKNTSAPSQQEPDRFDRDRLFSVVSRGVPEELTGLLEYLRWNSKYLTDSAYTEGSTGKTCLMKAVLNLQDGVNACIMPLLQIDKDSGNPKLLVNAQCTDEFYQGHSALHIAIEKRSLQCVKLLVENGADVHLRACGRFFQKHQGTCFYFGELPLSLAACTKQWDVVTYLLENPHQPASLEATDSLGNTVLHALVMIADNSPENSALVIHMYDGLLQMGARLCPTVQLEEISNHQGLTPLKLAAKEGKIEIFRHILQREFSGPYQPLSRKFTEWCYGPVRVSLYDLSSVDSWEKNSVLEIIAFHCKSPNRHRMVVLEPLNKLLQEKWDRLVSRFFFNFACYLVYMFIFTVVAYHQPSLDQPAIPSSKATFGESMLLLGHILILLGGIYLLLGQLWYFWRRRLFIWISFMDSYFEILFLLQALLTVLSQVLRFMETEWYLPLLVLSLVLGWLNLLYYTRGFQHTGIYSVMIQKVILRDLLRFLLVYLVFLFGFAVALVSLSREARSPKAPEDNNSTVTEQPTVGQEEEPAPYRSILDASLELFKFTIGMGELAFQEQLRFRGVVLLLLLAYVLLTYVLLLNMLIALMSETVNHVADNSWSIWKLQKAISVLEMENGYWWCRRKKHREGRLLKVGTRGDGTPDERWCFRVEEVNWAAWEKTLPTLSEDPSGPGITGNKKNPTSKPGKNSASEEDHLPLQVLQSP
The settings on record: cited from earlier work.

The next experiment deals with T6, human capsaicin receptor (Homo sapiens, UniProt Q8NER1, T469I).
T6 construct: expressed in transfected cells; host or cells: HEK 293T (transient, LIPOFECTAMINE; pBK-CMV phagemid clones PT35, PT44)
T6 sequence (Q8NER1 whole entry T469I): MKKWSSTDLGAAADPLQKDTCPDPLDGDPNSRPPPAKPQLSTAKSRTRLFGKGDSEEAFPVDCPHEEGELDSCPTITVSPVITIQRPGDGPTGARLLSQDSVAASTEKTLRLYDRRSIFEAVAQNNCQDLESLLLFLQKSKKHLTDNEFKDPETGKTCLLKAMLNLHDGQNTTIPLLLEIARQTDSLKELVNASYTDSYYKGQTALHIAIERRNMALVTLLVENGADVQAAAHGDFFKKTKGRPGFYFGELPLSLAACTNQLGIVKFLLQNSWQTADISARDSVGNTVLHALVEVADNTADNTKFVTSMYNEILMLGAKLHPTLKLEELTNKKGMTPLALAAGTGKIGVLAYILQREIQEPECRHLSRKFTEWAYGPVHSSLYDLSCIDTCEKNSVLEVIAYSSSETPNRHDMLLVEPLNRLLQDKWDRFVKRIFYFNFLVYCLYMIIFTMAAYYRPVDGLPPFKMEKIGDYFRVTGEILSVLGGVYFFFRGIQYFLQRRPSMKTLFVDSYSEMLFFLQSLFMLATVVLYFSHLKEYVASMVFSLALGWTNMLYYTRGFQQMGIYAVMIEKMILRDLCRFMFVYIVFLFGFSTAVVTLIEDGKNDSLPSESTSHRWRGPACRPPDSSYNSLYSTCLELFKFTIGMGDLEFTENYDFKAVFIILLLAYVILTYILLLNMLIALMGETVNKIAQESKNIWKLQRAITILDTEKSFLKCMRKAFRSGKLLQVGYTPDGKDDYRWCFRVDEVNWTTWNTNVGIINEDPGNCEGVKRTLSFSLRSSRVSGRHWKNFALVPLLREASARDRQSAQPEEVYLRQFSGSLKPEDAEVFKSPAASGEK
Type of experiment: cell-based.

Experiment [8] deals with T7, short form of human capsaicin receptor (Homo sapiens, UniProt Q8NER1, M315I/P91S/T469I).
T7 construct: expressed in transfected cells; host or cells: HEK 293T (transient, LIPOFECTAMINE; plasmid PT36)
T7 sequence (Q8NER1 with tags, fused parts or gaps P91S/M315I/T469I): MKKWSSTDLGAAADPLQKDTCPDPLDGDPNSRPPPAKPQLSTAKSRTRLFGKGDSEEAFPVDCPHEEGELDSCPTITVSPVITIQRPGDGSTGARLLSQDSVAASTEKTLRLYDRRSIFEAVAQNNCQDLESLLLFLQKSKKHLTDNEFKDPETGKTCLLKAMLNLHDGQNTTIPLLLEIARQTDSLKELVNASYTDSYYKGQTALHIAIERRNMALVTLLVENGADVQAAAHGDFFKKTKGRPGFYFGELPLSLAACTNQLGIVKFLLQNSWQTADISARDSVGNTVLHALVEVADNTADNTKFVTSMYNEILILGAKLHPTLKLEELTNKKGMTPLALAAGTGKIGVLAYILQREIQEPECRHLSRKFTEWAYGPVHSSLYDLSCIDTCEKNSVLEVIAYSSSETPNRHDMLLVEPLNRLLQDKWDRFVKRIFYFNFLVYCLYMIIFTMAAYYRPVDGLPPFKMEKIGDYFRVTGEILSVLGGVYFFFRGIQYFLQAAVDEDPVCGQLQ
The class given is cell-based.

The test system of another experiment is HEK 293T cells. The class given is cell-based, human.
Where [9] appears, read: EC50 (potency) of calcium mobilization.
[10] abbreviates: read-out: 45Ca2+-uptake (EC50, nM), agonists.
Setting [11] is: read-out: Ki for inhibition of [3H]RTX binding.
The mark [12] stands for this setting: Binding affinity (nM), radioligand itself.
Where [13] appears, read: read-out: EC50 for inducing calcium uptake / influx.

T1 sequence (O35433 whole entry): as the sequence (O35433 whole entry) above
T4 sequence (O35433 whole entry): as above

For orientation: Ki means a measure of affinity in units of concentration, obtained from inhibition or displacement. With `CCCCCCCC/C=C\CCCCCCCC(=O)NCc1ccc(O)c(OC)c1` [olvanil], the EC50 at rat VR1 [1] (Ca2+-mobilization (EC50, nM), agonists) is 216 nM; at rat VR1 [1] (setting [9]) it was 22 nM; in experiment [3] (setting [10]) it was 170 nM. The same compound showed an inhibitory constant (Ki) in experiment [2] of 300 nM.

For the compound `CC(C)=CCC/C(C)=C/CC/C(C)=C/Cc1c(C)c(C=O)c(O)c(O)c1O` [scutigeral], the Ki is 20000 nM and 18000 nM at rat VR1 [4] (setting [11]); 21000 nM in experiment [2] (setting [11]).

What is called Kd is the concentration at which binding is half-saturated. Take `C=C(C)[C@]12C[C@@H](C)[C@@]34O[C@](Cc5ccccc5)(O[C@@H]1[C@@H]3C=C(COC(=O)Cc1ccc(O)c(OC)c1)C[C@]1(O)C(=O)C(C)=C[C@@H]41)O2` [resiniferatoxin, Resiniferatoxin]: on rat VR1 [5], the Hill number was 1.8 and 1.9+/−0.1; the maximal receptor density is listed as 470+/−30 fmol/10^6 cells. Further, binding on rat VR1 [5] (setting [12]) was characterised by a dissociation constant (Kd) of 0.13 nM. In addition, the Kd at rat VR1 [5] ([3H]RTX binding affinity (Kd)) was determined as 0.103 nM. The “time-course of calcium mobilization response” value at rat VR1 [1] is recorded as “slowly developing but persistent calcium currents”. Moreover, the EC50 on rat VR1 [1] (setting [9]) came out at 1.4 nM. In addition, the “fold more potent for binding than for inducing calcium uptake” value at vanilloid receptor (VR) is “approximately 25 fold”. For the same compound, at vanilloid receptor (VR) (read-out: Kd of binding), the Kd was 0.04 nM. Further, at rat VR1 [4], the Bmax is given as 250+/−24 fmol/10^6 cells; the “Hill coefficient, FIG. 1A” value stood at 1.8; the “Hill number (cooperativity index)” value was 2.1 and 2.1+/−0.2; the “dissociation constant (1st order decay)” value came out at 0.12 ± 0.02 min⁻¹. In addition, on rat VR1 [4], the “maximal receptor density, FIG. 1A” value was 222 fmol per one million cells; the “non-specific binding as share of total binding” value is reported as “approximately 20%”; the receptor density is reported as 1.5×10^5 binding sites per cell; the “specific binding attained, of its peak value” is reported as “approximately 90%”. Moreover, the Kd on rat VR1 [4] (Half-maximal binding, FIG. 1A) was determined as 0.056 nM. Moreover, the Kd at rat VR1 [4] ([3H]RTX binding affinity (half-maximal binding)) is 0.084 nM. The compound also returned an EC50 on rat VR1 [6] of 4.1 nM. In addition, in experiment [2], the Bmax was 290+/−10 fmol/mg protein; the “Hill coefficient, FIG. 2” value is 1.5; the “Hill number (cooperativity index)” value is 1.7 and 1.9+/−2; the “maximal receptor density, FIG. 2” value is given as 302 fmol per one million cells. Also, binding in [2] (setting [12]) was characterised by a dissociation constant (Kd) of 0.07 nM. The compound also yielded a Kd in experiment [2] (Half-maximal binding, FIG. 2) of 0.06 nM. This compound also returned a Kd in experiment [2] ([3H]RTX Kd) of 0.07 nM. Moreover, the “fold more potent than capsaicin” value at VR1 is on record as “approximately 20 fold”. Also, in experiment [3] (setting [13]), the EC50 was 1 nM.

As for `CC1(C)C[C@H]2C=C(C=O)[C@]3(C=O)C[C@]3(C)[C@H]2C1` [isovelleral], the Ki on rat VR1 [4] (Ki for inhibition of [3H]RTX binding) is 18000 nM and 20000 nM; in experiment [2] it was 24000 nM.

By IC50 is commonly meant the concentration needed to halve the response being measured. Consider `Oc1cc2c(cc1O)CN(C(=S)NCCc1ccc(Cl)cc1)CCC2` [capsazepine], for which the Ki at rat VR1 [5] (Binding affinity (nM), competing ligands) was 5100 nM; on rat VR1 [1] (Ca2+-mobilization, Ki value), 140 nM and 1100 nM; in experiment [2], 8600 nM; in [3] (read-out: 45Ca2+-uptake, Ki value), 271 nM. The IC50 at rat VR1 [1] (IC50 for inhibition of capsaicin-evoked calcium mobilization) is 2400 nM and 330 nM.

In the case of `N.N.N.N.N.N.N.N.N.N.N.N.N.N.[Cl-].[Cl-].[Cl-].[Cl-].[Cl-].[Cl-].[O-2].[O-2].[Ru+3].[Ru+3].[Ru+4]` [ruthenium red], the “Binding affinity (nM), competing ligands” value (on rat VR1 [5]; in experiment [2]) was “no effect” in each case. The IC50 on rat VR1 [1] (read-out: IC50 for prevention of calcium mobilization by capsaicin, n=7) is 210 nM.

`COc1cc(CNC(=O)CCCC/C=C/C(C)C)ccc1O` [capsaicin]: the “time to peak value of calcium mobilization response” value on rat VR1 [1] was at most 1 min. In experiment [7], the “sensitivity of VRL-1” value is “insensitive”. Besides, the “Ave Max Response (RFU)” value at human capsaicin receptor was 7257 RFU and 5529 RFU; in [8], 805 RFU; with HEK 293T cells, 843 RFU. The EC50 in experiment [3] (setting [10]) is 340 nM; in experiment [3] (setting [13]), 270 nM.
